Measurements from US20180119123A1, “CRISPR/CAS-RELATED METHODS AND COMPOSITIONS FOR TREATING HIV INFECTION AND AIDS” (EDITAS MEDICINE, INC., priority 2015, published 2018).

Key:
Type in all cases: cell-based
human CCR5 gene = assay: T7E1 endonuclease assay of CCR5 PCR product after electroporation of S. aureus Cas9 plasmid and gRNA STITCHR product into K562 cells; conditions: 750 ng S. aureus Cas9 plasmid DNA and 250 ng STITCHR product, 48 and 72 hours after electroporation
From the text: To identify gRNAs that efficiently target disruption of the human CCR5 gene, eleven gRNAs were selected from a larger list of gRNAs obtained from in silico prediction of gRNAs with S. aureus specific PAM sequences. In silico predicted gRNAs were tiered according to the strategy described in Section 8. An abbreviated list of eleven gRNAs with the lowest predictive off-target scores were selected for subsequent screening experiments, based on proximity to the naturally occurring de1ta32 mutation in CCR5 that has been associated with resistance to HIV. The target-specific complementary region of the selected list of eleven gRNAs are depicted in Table 15.
A DNA plasmid encoding an S. aureus expression cassette (AF002) and a gRNA-specific STITCHR product, which is a DNA molecule consisting of a U6 promoter driving expression of the chimeric gRNA (i.e., a target-specific complementary sequence and the S. aureus gRNA scaffold), were electroporated into K562 cells using the Amaxa Nucleofector system and the program and protocol for K562 cells per the manufacturer's instructions. In brief, 750 ng S. aureus Cas9 plasmid DNA and 250 ng of STITCHR product were used for each gRNA. […]

CCR5 locus [1] = assay: T7E1 analysis of gene disruption at CCR5 after Cas9 RNP electroporation of primary human T lymphocytes; conditions: human CD4+ T lymphocytes, WT Cas9 RNP, 5 μg each RNP per 200,000 cells, 72 hours after electroporation
From the text: While transplantation of autologous CD34^+ HSCs genetically modified to prevent expression of the wild-type CXCR4 or the CCR5 would provide a long-term cure to HIV infection, the myeloablative conditioning associated with HSC transplantation destroys host adaptive immunity […] until the T cell pool is reconstituted after HSC engraftment is acheived, which can take several months. This delay in adaptive immune reconstitution puts patients at risk for the development of opportunistic infections during the acute phase of early engraftment following HSC transplantation. […] In this Example, single and multiplex genome editing in human T lymphocytes after electroporation of Cas9 RNP targeting the CXCR4 locus, the CCR5 locus, or both simultaneously (multiplexing) was evaluated after electroporation of CXCR4 and CCR5 gRNAs that were in vitro transcribed and modified to have an ARCA cap at the 5′ end and a polyA (20A) tail at the 3′ end. […] Table 16 depicts experimental design associated with Example 9 to evaluate gene editing as determined by T7E1 endonuclease assay analysis of the CXCR4 and CCR5 loci after electroporation of primary human T lymphocytes with S. aureus and/or S. pyogenes RNPs. […]

CCR5 locus [2] = assay: T7E1 endonuclease assay at CCR5 after Cas9 RNP electroporation of human cord blood CD34+ HSCs; conditions: human CB CD34+ HSCs, WT Cas9 RNP, 5 μg each per 200,000 cells, 72 hours after electroporation
From the text: Transplantation of autologous CD34^+ hematopoietic stem cells (HSCs, also known as hematopoietic stem/progenitor cells or HSPCs) that have been edited to disrupt expression of CXCR4 or CCR5 gene products would prevent entry of the HIV virus HSC progeny that are normally susceptible to HIV infection (e.g., macrophages and CD4 T lymphocytes). Multiplex genome editing with the Cas9 RNP complexed to modified gRNAs precisely alters more than one endogenous gene targets by creating indels at two different cut sites can lead to knock down of gene expression at multiple edited loci. In this Example, single target and multiplex genome editing was evaluated in human umbilical cord blood (CB) CD34^+ cells after electroporation of wild-type S. pyogenes Cas9, wild-type S. aureus Cas9 or D10A nickase. Briefly, Cas9 protein was complexed with modified sgRNAs targeting CXCR4 or CCR5. […] Seventy-two hours after electroporation of RNP with the Amaxa nucleofector system, CD34^+ HSCs were collected, gDNA isolated and CXCR4 and CCR5 PCR products analyzed by T7E1 endonuclease assay to evaluate targeted disruption of these HIV co-receptors (Table 19). Table 19 depicts experimental design associated with Example 10 to evaluate gene editing determined by T7E1 endonuclease assay analysis of the at CXCR4 and CCR5 loci after electroporation of primary human CD34^+ HSCs with S. aureus and/or S. pyogenes RNPs.

In the case of “CCR5_Sa3: S. aureus gRNA targeting CCR5; GUGGUGACAAGUGUGAUCAC (SEQ ID NO: 488) (RNA, backbone not given here; in vitro transcribed gRNA with scaffold, 5' ARCA cap, 3' polyA (20A) tail)”, the “indels in CCR5” value (human CCR5 gene) was “about 39%”, the “% editing at CCR5” value (CCR5 locus [1]) was 1.98% and the “% editing at CCR5” value (CCR5 locus [2]) was 0.44%.
